Our source for the EC50 values is patent US9365614B2, “IAP BIR domain binding compounds” (priority 2006, dated 2016).

One may read the EC50 as the concentration at which the effect is half-maximal.

For the first assay, the system named is MDA-MB231 cells. Briefly: Survival MTT assay, MDA-MB-231. The format is cell-based. The note with it: Homo sapiens, 72 h. The method, then:
(§1) One day prior the treatment with compound, 2000 to 4000 cells per well were plated in a tissue culture treated 96 well format dish with 100 ul of media and incubated at 37° C., 5% CO2. On the day of compound treatment, compounds were diluted with cell culture media to a working stock concentration of 2×. 100 uL of diluted compound were then added to each well. The treated plate was incubated for 72 h at 37° C., 5% CO2. Upon incubation, the cell viability was assessed as followed 20 uL of MTT reagent at 5 mg/ml were added per well to cell plate. The plate was incubated for 2 h at 37° C. in presence of 5% CO2. The supernatant was then removed from the plate and 100 uL of isopropanol were added. The absorbance was measured in a TECAN spectrophotometer at 570 nm. The percentage of viability was expressed in percentage of the signal obtained with non treated cells.
(In general: Tetrazolium assays rely on reduction of a dye to a coloured formazan, in cell work by metabolically active cells.)
In turn, `CN[C@@H](C)C(=O)N[C@H](C(=O)N1C[C@@H](OCC#CC#CCO[C@H]2C[C@@H](C(=O)N[C@@H]3CCCc4ccccc43)N(C(=O)[C@@H](NC(=O)[C@H](C)NC)C(C)(C)C)C2)C[C@H]1C(=O)N[C@@H]1CCCc2ccccc21)C(C)(C)C` [Compound 1] gave a concentration giving a half-maximal response (EC50) of under 50 nM. In the case of `CN[C@@H](C)C(=O)N[C@H](C(=O)C1C[C@@H](NC(=O)CCCCCCCCC(=O)N[C@H]2C[C@@H](C(=O)N[C@@H]3CCCc4ccccc43)N(C(=O)[C@@H](NC(=O)[C@H](C)NC)C(C)(C)C)C2)C[C@H]1C(=O)N[C@@H]1CCCc2ccccc21)C(C)(C)C` (some centres unmarked) [Compound 2], the EC50 was under 50 nM. `CC(C)(C)[C@H](NC(=O)[C@@H](N)CO)C(=O)N1C[C@@H](OCC#CC#CCO[C@H]2C[C@@H](C(=O)N[C@@H]3CCCc4ccccc43)N(C(=O)[C@@H](NC(=O)[C@@H](N)CO)C(C)(C)C)C2)C[C@H]1C(=O)N[C@@H]1CCCc2ccccc21` [Compound 5] yielded an EC50 of over 1000 nM.

The next assay has as its system SKOV-3 cells. Briefly: Survival MTT assay, SKOV-3. Type of assay: cell-based. The note with it: Homo sapiens, SK-OV-3, 72 h, read-out: SKOV-3 EC50. The method, then:
as §1
With `CN[C@@H](C)C(=O)N[C@H](C(=O)N1C[C@@H](OCC#CC#CCO[C@H]2C[C@@H](C(=O)N[C@@H]3CCCc4ccccc43)N(C(=O)[C@@H](NC(=O)[C@H](C)NC)C(C)(C)C)C2)C[C@H]1C(=O)N[C@@H]1CCCc2ccccc21)C(C)(C)C` [Compound 1], the EC50 is under 50 nM. On the same count and under the same terms, under `CN[C@@H](C)C(=O)N[C@H](C(=O)C1C[C@@H](NC(=O)CCCCCCCCC(=O)N[C@H]2C[C@@H](C(=O)N[C@@H]3CCCc4ccccc43)N(C(=O)[C@@H](NC(=O)[C@H](C)NC)C(C)(C)C)C2)C[C@H]1C(=O)N[C@@H]1CCCc2ccccc21)C(C)(C)C` (some centres unmarked) [Compound 2] stands under 50 nM; under `CN[C@@H](C)C(=O)N[C@H](C(=O)N1C[C@@H](NC(=O)c2cccc(C(=O)N[C@H]3C[C@@H](C(=O)N[C@@H]4CCCc5ccccc54)N(C(=O)[C@@H](NC(=O)[C@H](C)NC)C(C)(C)C)C3)c2)C[C@H]1C(=O)N[C@@H]1CCCc2ccccc21)C(C)(C)C` [Compound 40], under 50 nM; under `CN[C@@H](C)C(=O)N[C@H](C(=O)N1C[C@@H](NC(=O)c2cncc(C(=O)N[C@H]3C[C@@H](C(=O)N[C@@H]4CCCc5ccccc54)N(C(=O)[C@@H](NC(=O)[C@H](C)NC)C(C)(C)C)C3)c2)C[C@H]1C(=O)N[C@@H]1CCCc2ccccc21)C(C)(C)C` [Compound 41], under 50 nM. On to `CN[C@@H](C)C(=O)N[C@H](C(=O)N1C[C@@H](NC(=O)c2cccc(C(=O)N[C@H]3C[C@@H](C(=O)N[C@@H]4CCCc5ccccc54)N(C(=O)[C@@H](NC(=O)[C@H](C)NC)C(C)(C)C)C3)n2)C[C@H]1C(=O)N[C@@H]1CCCc2ccccc21)C(C)(C)C` [Compound 43], for which the EC50 is under 250 nM. On the same count and under the same terms, under `CN[C@@H](C)C(=O)N[C@H](C(=O)N1C[C@@H](NC(=O)Nc2ccc(NC(=O)N[C@H]3C[C@@H](C(=O)N[C@@H]4CCCc5ccccc54)N(C(=O)[C@@H](NC(=O)[C@H](C)NC)C(C)(C)C)C3)cc2)C[C@H]1C(=O)N[C@@H]1CCCc2ccccc21)C(C)(C)C` [Compound 44] stands under 50 nM. In the case of `CN[C@@H](C)C(=O)N[C@H](C(=O)N1C[C@@H](NC(=O)c2ccc(C(=O)N[C@H]3C[C@@H](C(=O)NCc4ccccc4)N(C(=O)[C@@H](NC(=O)[C@H](C)NC)C(C)(C)C)C3)cc2)C[C@H]1C(=O)NCc1ccccc1)C(C)(C)C` [Compound 46], the EC50 is under 250 nM. On the same count and under the same terms, in the case of `CN[C@@H](C)C(=O)N[C@H](C(=O)N1C[C@@H](NC(=O)c2ccc(C(=O)N[C@H]3C[C@@H](C(=O)NC4c5ccccc5-c5ccccc54)N(C(=O)[C@@H](NC(=O)[C@H](C)NC)C(C)(C)C)C3)cc2)C[C@H]1C(=O)NC1c2ccccc2-c2ccccc21)C(C)(C)C` [Compound 47] it was under 50 nM; in that of `CN[C@@H](C)C(=O)N[C@H](C(=O)N1C[C@@H](NC(=O)c2ccc(C(=O)N[C@H]3C[C@@H](C(=O)NCc4cccc(-c5ccccc5)c4)N(C(=O)[C@@H](NC(=O)[C@H](C)NC)C(C)(C)C)C3)cc2)C[C@H]1C(=O)NCc1cccc(-c2ccccc2)c1)C(C)(C)C` [Compound 48], under 250 nM; in that of `CN[C@@H](C)C(=O)N[C@H](C(=O)N1C[C@@H](NC(=O)c2ccc(C(=O)N[C@H]3C[C@@H](C(=O)N[C@H](C)c4ccccc4)N(C(=O)[C@@H](NC(=O)[C@H](C)NC)C(C)(C)C)C3)cc2)C[C@H]1C(=O)N[C@H](C)c1ccccc1)C(C)(C)C` [Compound 49], under 50 nM. For the compound `CN[C@@H](C)C(=O)N[C@H](C(=O)N1C[C@@H](NC(=O)c2ccc(C(=O)N[C@H]3C[C@@H](C(=O)N[C@@H](C)c4ccccc4)N(C(=O)[C@@H](NC(=O)[C@H](C)NC)C(C)(C)C)C3)cc2)C[C@H]1C(=O)N[C@@H](C)c1ccccc1)C(C)(C)C` [Compound 50], the EC50 is under 250 nM. On to `CN[C@@H](C)C(=O)N[C@H](C(=O)N1C[C@@H](NC(=O)c2ccc(C(=O)N[C@H]3C[C@@H](C(=O)NC(c4ccc(OC)cc4)c4ccc(OC)cc4)N(C(=O)[C@@H](NC(=O)[C@H](C)NC)C(C)(C)C)C3)cc2)C[C@H]1C(=O)NC(c1ccc(OC)cc1)c1ccc(OC)cc1)C(C)(C)C` [Compound 51], for which the EC50 is under 250 nM.

For the compound `CN[C@@H](C)C(=O)N[C@H](C(=O)N1C[C@@H](NC(=O)C2CCC(C(=O)N[C@H]3C[C@@H](C(=O)N[C@@H]4CCCc5ccccc54)N(C(=O)[C@@H](NC(=O)[C@H](C)NC)C(C)(C)C)C3)CC2)C[C@H]1C(=O)N[C@@H]1CCCc2ccccc21)C(C)(C)C` (some centres unmarked) [Compound 52], the EC50 was under 50 nM.

Take `CC[C@H](N)C(=O)N[C@H](C(=O)N1C[C@@H](NC(=O)c2ccc(C(=O)N[C@H]3C[C@@H](C(=O)N[C@@H]4CCCc5ccccc54)N(C(=O)[C@@H](NC(=O)[C@@H](N)CC)C(C)(C)C)C3)cc2)C[C@H]1C(=O)N[C@@H]1CCCc2ccccc21)C(C)(C)C` [Compound 53]: the EC50 is over 1000 nM. `CN[C@@H](C)C(=O)N[C@H](C(=O)N1C[C@@H](NC(=O)c2ccc(C(=O)N[C@H]3C[C@@H](C(=O)N[C@@H](CO)c4ccccc4)N(C(=O)[C@@H](NC(=O)[C@H](C)NC)C(C)(C)C)C3)cc2)C[C@H]1C(=O)N[C@@H](CO)c1ccccc1)C(C)(C)C` [Compound 54]: the EC50 was over 1000 nM. Take `CN[C@@H](C)C(=O)N[C@H](C(=O)N1C[C@@H](NC(=O)c2ccc(C(=O)N[C@H]3C[C@@H](C(=O)N[C@@H]4CCCc5ccccc54)N(C(=O)[C@@H](NC(=O)[C@H](C)NC)C(C)(C)C)C3)cc2)C[C@H]1C(=O)N[C@@H]1CCCc2ccccc21)C(C)(C)C` [Compound 55]: the EC50 was under 50 nM. Consider `CN[C@@H](C)C(=O)N[C@H](C(=O)N1C[C@@H](NS(=O)(=O)c2ccc3cc(S(=O)(=O)N[C@H]4C[C@@H](C(=O)N[C@@H]5CCCc6ccccc65)N(C(=O)[C@@H](NC(=O)[C@H](C)NC)C(C)(C)C)C4)ccc3c2)C[C@H]1C(=O)N[C@@H]1CCCc2ccccc21)C(C)(C)C` [Compound 56], for which the EC50 is under 50 nM. With `CN[C@@H](C)C(=O)N[C@H](C(=O)N1C[C@@H](CC(=O)c2ccc3ccc(C(=O)N[C@H]4C[C@@H](C(=O)N[C@@H]5CCCc6ccccc65)N(C(=O)[C@@H](NC(=O)[C@H](C)NC)C(C)(C)C)C4)cc3c2)C[C@H]1C(=O)N[C@@H]1CCCc2ccccc21)C(C)(C)C` [Compound 57], the EC50 was under 50 nM.

Consider `CN[C@@H](C)C(=O)N[C@H](C(=O)N1C[C@@H](NS(=O)(=O)c2ccc3ccc(S(=O)(=O)N[C@H]4C[C@@H](C(=O)N[C@@H]5CCCc6ccccc65)N(C(=O)[C@@H](NC(=O)[C@H](C)NC)C(C)(C)C)C4)cc3c2)C[C@H]1C(=O)N[C@@H]1CCCc2ccccc21)C(C)(C)C` [Compound 58], for which the EC50 was under 250 nM. On the same count and under the same terms, in the case of `CN[C@@H](C)C(=O)N[C@H](C(=O)N1C[C@@H](NC(=O)c2ccc(C(=O)N[C@H]3C[C@@H](C(=O)N[C@H](CO)c4ccccc4)N(C(=O)[C@@H](NC(=O)[C@H](C)NC)C(C)(C)C)C3)cc2)C[C@H]1C(=O)N[C@H](CO)c1ccccc1)C(C)(C)C` [Compound 59] it was under 250 nM; in that of `CN[C@@H](C)C(=O)N[C@H](C(=O)N1C[C@@H](NC(=O)c2ccc(C(=O)N[C@H]3C[C@@H](C(=O)NCc4ccccc4-c4ccccc4)N(C(=O)[C@@H](NC(=O)[C@H](C)NC)C(C)(C)C)C3)cc2)C[C@H]1C(=O)NCc1ccccc1-c1ccccc1)C(C)(C)C` [Compound 60], under 50 nM; in that of `CN[C@@H](C)C(=O)N[C@H](C(=O)N1C[C@@H](NC(=O)c2ccc(C(=O)N[C@H]3C[C@@H](C(=O)NC4Cc5ccccc5C4)N(C(=O)[C@@H](NC(=O)[C@H](C)NC)C(C)(C)C)C3)cc2)C[C@H]1C(=O)NC1Cc2ccccc2C1)C(C)(C)C` [Compound 61], under 50 nM. For `CN[C@@H](C)C(=O)N[C@H](C(=O)N1C[C@@H](NC(=O)c2ccc(C(=O)N[C@H]3C[C@@H](C(=O)N[C@H](COCc4ccccc4)c4ccccc4)N(C(=O)[C@@H](NC(=O)[C@H](C)NC)C(C)(C)C)C3)cc2)C[C@H]1C(=O)N[C@H](COCc1ccccc1)c1ccccc1)C(C)(C)C` [Compound 64], the concentration for a half-maximal effect (EC50) was under 50 nM.
